{
  "source": "paper PMC11237035",
  "about": "“Glutathione determines chronic myeloid leukemia vulnerability to an inhibitor of CMPK and TMPK” (Communications Biology, 2024)",
  "key": {"T315I-Bcr-Abl-32D cells [1]": {"test_system": "T315I-Bcr-Abl-32D cells", "assay": "CCK-8 cell viability assay, T315I-Bcr-Abl-32D cells", "format": "cell-based, mouse", "details": "for viability (0 = 100): T315I-Bcr-Abl, single replicates"}, "K562 cells": {"test_system": "K562 cells", "assay": "CCK-8 cell viability assay, K562 cells", "format": "cell-based, human", "details": "for cell viability (Figure 7d): K562, relative to 0 = 100, per replicate", "experimental": "After 3 days, cells were analyzed by viability assays."}, "untransformed 32D cells": {"test_system": "untransformed 32D cells", "assay": "Western blot of tyrosine phosphorylation, untransformed 32D cells", "format": "cell-based, mouse", "details": "untransformed 32D cells, JMF4073 at indicated concentrations, Western blot"}, "WT-Bcr-Abl-32D cells": {"test_system": "WT-Bcr-Abl-32D cells", "assay": "Western blot of tyrosine phosphorylation and Bcr-Abl downstream signaling, WT-Bcr-Abl-32D cells", "format": "cell-based, mouse", "details": "WT-Bcr-Abl-32D cells, JMF4073 at indicated concentrations, Western blot", "from_the_text": "(§1) Supplementary Figure 1. Bcr-Abl-activated downstream signaling in WT- and\n(§2) The comparison of Bcr-Abl downstream signaling (Akt, mTorC1, and Stat5) in WT- […]"}, "T315I-Bcr-Abl-32D cells [2]": {"test_system": "T315I-Bcr-Abl-32D cells", "assay": "Western blot of tyrosine phosphorylation and Bcr-Abl downstream signaling, T315I-Bcr-Abl-32D cells", "format": "cell-based, mouse", "details": "T315I-Bcr-Abl-32D cells, JMF4073 at indicated concentrations, Western blot", "from_the_text": "as §1, §2"}, "hTMPK": {"target": "T1, hTMPK (Homo sapiens, UniProt P23919)", "T1 sequence (P23919 1-212)": "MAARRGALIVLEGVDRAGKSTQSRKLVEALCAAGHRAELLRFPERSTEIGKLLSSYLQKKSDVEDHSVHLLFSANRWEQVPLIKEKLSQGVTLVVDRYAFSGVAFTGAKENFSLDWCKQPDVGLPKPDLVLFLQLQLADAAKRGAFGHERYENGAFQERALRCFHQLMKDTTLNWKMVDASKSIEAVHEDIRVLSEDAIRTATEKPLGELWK", "assay": "biochemical", "description": "Activity assay was measured using the spectrophotometric method by coupling ADP formation to NADH oxidation catalyzed by pyruvate kinase and lactate dehydrogenase as described previously[20]. Each reaction contained 0.4 μg TMPK or 0.3 μg CMPK was incubated at 25 °C followed by using Tecan Spark 10 microplate reader to detect the change in NADH measurement at 340 nm absorption according to the manufacturer’s instructions."}, "TCCS cells": {"test_system": "TCCS cells", "assay": "CCK-8 cell viability assay, TCCS cells", "details": "for cell viability (Figure 7d) / cell viability (Figure 7g): TCCS, per replicate; for cell viability (Figure 7d): relative to 0 = 100; for cell viability (Figure 7g): NT, NT 0 μM = 100", "description": "(§3) Cells were seeded at the density of 1 × 10^3 cells/well in 96-well microplate. After 3 days, cell viability was determined using the CCK-8 cell viability. The viability was measured by using Tecan Spark 10 microplate reader at 450 nm according to the manufacturer’s instructions."}, "KOPM28 cells": {"test_system": "KOPM28 cells", "assay": "CCK-8 cell viability assay, KOPM28 cells", "details": "for cell viability (Figure 7g): NT, NT 0 μM = 100, per replicate", "description": "as §3"}, "[3]": {"test_system": "WT-Bcr-Abl-32D cells in C3H/HeNCrNarl mice", "assay": "In vivo therapy of WT-Bcr-Abl-32D CML mice", "details": "WT-Bcr-Abl-32D mice", "excerpt": "Data are represented as means ± S.D., n = 3 biological replicates. e C3H/HeNCrNarl mice were intravenously injected with 5 × 10^5 cells of WT-Bcr-Abl-32D cell. […] Asterisks denote *p < 0.05, **p < 0.01, ***p < 0.001, or ****p < 0.0001 from unpaired two-tailed Student’s t-test or Log-rank (Mantel–Cox) test.\nFemale C3H/HeNCrNarl mice were used at 6–8 weeks of age (National Laboratory Animal Center, Taiwan).\nMouse CML induction and in vivo therapy\nFemale C3H/HeNCrNarl mice were used at 6-8 weeks of age (National\nLaboratory Animal Center, Taiwan). WT-Bcr-Abl-32D-EGFP+ cells (5 × 105)\nsuspended in 200 μL of HBSS were injected into each mouse through the tail vein. After\nwere monitored for peripheral blood (PB) and counted by Taiwan Mouse Clinic-\nNational Phenotyping Center, National Research Program for Genomic Medicine\n(NSC). For T315I-Bcr-Abl CML mice, T315I-Bcr-Abl-32D-EGFP+ cells (1×106)\nsuspended in 200 μL of HBSS were tail-vein-injected. After 7 days of transplantation,\n(§4) For monitoring CML progress, mice blood was\n(§5) collected in anticoagulation tubes by submandibular blood collection, followed by\n(§6) lysing red blood cells with RBC lysis buffer (Invitrogen). After washing, the remaining\n(§7) cells were suspended in 500 μL of HBSS and subjected to flow cytometry analysis\n(FACScalibur, BD Bioscience) with CellQuest software. The number of EGFP+ cells"}, "[4]": {"test_system": "T315I-Bcr-Abl-32D cells in C3H/HeNCrNarl mice", "details": "for survival of leukemia mice: T315I-Bcr-Abl-32D mice, vs vehicle", "description": "Asterisks denote *p < 0.05, **p < 0.01, ***p < 0.001, or ****p < 0.0001 from unpaired two-tailed Student’s t-test or Log-rank (Mantel–Cox) test.\nT315I-Bcr-Abl-transformed and untransformed 32D cells were treated with UK-5099 (25 μM) for 16 h. […] Data are represented as means ± S.D., n > 3 biological replicates.\nThe animal studies were approved by the biosafety committee at National Taiwan University and conformed to the national guidelines and regulations (IACUC # 20201063). Female C3H/HeNCrNarl mice were used at 6–8 weeks of age (National Laboratory Animal Center, Taiwan).\nMouse CML induction and in vivo therapy\nThe animal studies were approved by the biosafety committee at National Taiwan\nUniversity and conformed to the national guidelines and regulations (IACUC #\n20201063). Female C3H/HeNCrNarl mice were used at 6-8 weeks of age (National\nLaboratory Animal Center, Taiwan).\nsuspended in 200 μL of HBSS were injected into each mouse through the tail vein.\nsuspended in 200 μL of HBSS were tail-vein-injected.\nas §4, §5, §6, §7\n(FACScalibur, BD Bioscience) with CellQuest software."}},
  "note": "pIC50: −log10 of the molar value. Several values for one entry are separate records, joined by “and”; a condition that tells them apart may be missing. Equal values may be shown once. Read-outs that look alike come from different tables or passages of the source.",
  "data": [
    {"smiles": "CC(C)(C)OC(=O)N1CCN(C(=O)Cn2sc3ccc(F)cc3c2=O)CC1", "note": "[JMF4073, Tert-butyl 4-(2-(5-fluoro-3-oxobenzo[d]isothiazol-2(3H)-yl)acetyl) piperazine-1-carboxylate]", "values": [
      {"measurement": "viability (0 = 100)", "setting": "T315I-Bcr-Abl-32D cells [1]; JMF4073 2 mM (so in the source)", "result": "12 and 38 and 34.0126"},
      {"measurement": "viability (0 = 100)", "setting": "T315I-Bcr-Abl-32D cells [1]; JMF4073 5 mM (so in the source)", "result": "19 and 10 and 9.067"},
      {"measurement": "JMF4073 sensitivity with BSO co-treatment", "setting": "T315I-Bcr-Abl-32D cells [1]; T315I-Bcr-Abl-32D cells, BSO 12.5 μM", "result": "markedly increased"},
      {"measurement": "JMF4073 sensitivity with UK-5099 treatment", "setting": "T315I-Bcr-Abl-32D cells [1]; T315I-Bcr-Abl-32D cells, UK-5099 25 μM", "result": "sensitized"},
      {"measurement": "cell viability (Figure 7d)", "setting": "K562 cells; JMF4073 0.625 (mM as printed)", "result": "114.189 and 84.0418 and 97.6144"},
      {"measurement": "cell viability (Figure 7d)", "setting": "K562 cells; JMF4073 1.25 (mM as printed)", "result": "86.4343 and 75.2342 and 85.0231"},
      {"measurement": "cell viability (Figure 7d)", "setting": "K562 cells; JMF4073 2.5 (mM as printed)", "result": "42.6408 and 39.7616 and 38.8404"},
      {"measurement": "cell viability (Figure 7d)", "setting": "K562 cells; JMF4073 5 (mM as printed)", "result": "4.788 and 0.7438 and 0.1275"},
      {"measurement": "JMF4073 sensitivity", "setting": "K562 cells; K562 cells, 3 days, compared among K562, TCCS, KOPM28", "result": "higher"},
      {"measurement": "levels of overall tyrosine phosphorylation", "setting": "untransformed 32D cells", "result": "unaffected"},
      {"measurement": "levels of overall tyrosine phosphorylation", "setting": "WT-Bcr-Abl-32D cells", "result": "unaffected"},
      {"measurement": "levels of overall tyrosine phosphorylation", "setting": "T315I-Bcr-Abl-32D cells [2]", "result": "unaffected"},
      {"measurement": "pIC50", "setting": "hTMPK", "result": "6.80 and ~6.77"},
      {"measurement": "sensitivity to combinatory treatment of JMF4073 and UK-5099", "setting": "TCCS cells; TCCS cells", "result": "insensitive"},
      {"measurement": "JMF4073 sensitivity", "setting": "TCCS cells; TCCS cells, 3 days, compared among K562, TCCS, KOPM28", "result": "less"},
      {"measurement": "JMF4073 sensitivity after erastin pretreatment", "setting": "TCCS cells; TCCS cells, erastin 0.5 μM, 16 h", "result": "markedly increased"},
      {"measurement": "cell viability (Figure 7d)", "setting": "TCCS cells; JMF4073 0.625", "result": "120.422 and 103.29 and 164.136"},
      {"measurement": "cell viability (Figure 7d)", "setting": "TCCS cells; JMF4073 1.25", "result": "102.037 and 133.359"},
      {"measurement": "cell viability (Figure 7d)", "setting": "TCCS cells; JMF4073 2.5", "result": "39.3238 and 117.065"},
      {"measurement": "cell viability (Figure 7d)", "setting": "TCCS cells; JMF4073 5", "result": "61.7646 and -1.852 and 14.6452"},
      {"measurement": "cell viability (Figure 7g)", "setting": "TCCS cells; JMF 4073 0.625 μM", "result": "120.422 and 103.29 and 164.136"},
      {"measurement": "cell viability (Figure 7g)", "setting": "TCCS cells; JMF 4073 1.25 μM", "result": "102.037 and 133.359"},
      {"measurement": "cell viability (Figure 7g)", "setting": "TCCS cells; JMF 4073 2.5 μM", "result": "39.3238 and 117.065"},
      {"measurement": "cell viability (Figure 7g)", "setting": "TCCS cells; JMF 4073 5 μM", "result": "61.7646 and -1.852 and 14.6452"},
      {"measurement": "cell viability (Figure 7g)", "setting": "KOPM28 cells; KOPM28, JMF 4073 1.25 μM", "result": "106.704 and 151.464"},
      {"measurement": "cell viability (Figure 7g)", "setting": "KOPM28 cells; KOPM28, JMF 4073 2.5 μM", "result": "112.966 and 158.237"},
      {"measurement": "cell viability (Figure 7g)", "setting": "KOPM28 cells; KOPM28, JMF 4073 5 μM", "result": "142.547 and 122.577 and 85.9406"},
      {"measurement": "cell viability (Figure 7g)", "setting": "KOPM28 cells; KOPM28, JMF 4073 10 μM", "result": "0 and -1.445 and 2.083"},
      {"measurement": "sensitivity to combinatory treatment of JMF4073 and UK-5099", "setting": "KOPM28 cells; KOPM28 cells", "result": "insensitive"},
      {"measurement": "JMF4073 sensitivity", "setting": "KOPM28 cells; KOPM28 cells, 3 days, compared among K562, TCCS, KOPM28", "result": "insensitive"},
      {"measurement": "JMF4073 sensitivity after erastin pretreatment", "setting": "KOPM28 cells; KOPM28 cells, erastin 0.5 μM, 16 h", "result": "markedly increased"},
      {"measurement": "WBC (White blood cell/Leukocyte count)", "setting": "[3]; IP JMF4073, Day 26, submandibular blood, single mice", "result": "brought down"},
      {"measurement": "survival of leukemia mice", "setting": "[3]; JMF4073 5 mg/kg i.p. daily for 14 days, vs vehicle", "result": "prolonged the survival"},
      {"measurement": "Spleen weight", "setting": "[4]; Figure 6h, individual mice N1-N3", "result": "0.26 g and 0.29 g and 0.58 g"},
      {"measurement": "spleen size", "setting": "[4]; JMF4073 5 mg/kg + UK-5099 10 mg/kg i.p.", "result": "marked decreases"},
      {"measurement": "population of T315I-Bcr-Abl-32D/EGFP+ cells in blood", "setting": "[4]; JMF4073 5 mg/kg + UK-5099 10 mg/kg i.p., flow cytometry, day 30 after transplantation", "result": "marked decreases"},
      {"measurement": "survival of leukemia mice", "setting": "[4]; JMF4073 5 mg/kg + UK-5099 10 mg/kg i.p. daily for 14 days", "result": "prolonged the survival"},
      {"measurement": "survival of leukemia mice", "setting": "[4]; JMF4073 5 mg/kg i.p. daily for 14 days", "result": "not significantly prolonged"}
    ]}
  ]
}
